The numbers were not newly measured in publication PMC7657096 (Medical Mycology, 2020), which cites them from elsewhere.

Where “and” joins values, the source holds several entries; their conditions need not be identical. Identical values can stand only once. Like-named read-outs stand apart in the source and are kept apart here.

Data set [1] deals with onychomycosis. Conditions: after 10 months following weekly application for 9 months.
For data set [2], the system named is onychomycosis. Particulars: after 48 weeks following daily application for 48 weeks; two values.
For data set [3], the system named is onychomycosis. Particulars: topical, applied for 52 weeks; two values.
For data set [4], the system named is onychomycosis.
Data set [5] deals with onychomycosis. Conditions: after 12 or 24 weeks of oral terbinafine treatment.
Data set [6] has as its system onychomycosis. Particulars: topical solution applied daily for either 24 or 48 weeks.

For the compound `CCC(C)(C)c1ccc(CC(C)CN2C[C@@H](C)O[C@@H](C)C2)cc1` (stereo partly shown) [amorolfine], in the data set with onychomycosis [1], the “mycological cure (negative culture and negative microscopy)” value is 8%. Consider `Cc1cc(C2CCCCC2)n(O)c(=O)c1` [ciclopirox], for which the “mycological cure (negative culture and negative microscopy)” value with onychomycosis [2] is 29% and 36%. For `C=C1CCN([C@H](C)[C@](O)(Cn2cncn2)c2ccc(F)cc2F)CC1` [efinaconazole], in the data set on onychomycosis [3], the mycological cure was 53.4% and 55.2%. Consider `OB1OCc2cc(F)ccc21` [tavaborole], for which the mycological cure in the data set on onychomycosis [4] (topical, applied for 52 weeks) is recorded as 31.1%. For the same compound, the negative culture in the data set with onychomycosis [4] (two phase III studies, daily topical treatment for 48 weeks, ref (57)) was 87.0% and 85.4%. Turning to `CN(C/C=C/C#CC(C)(C)C)Cc1cccc2ccccc12` [terbinafine], in the data set with onychomycosis [5], the “trial participants with negative culture after 24 weeks (168 days)” value is on record as “approximately 80%”. In addition, the mycological cure in the data set on onychomycosis [6] is 12.7–18.8%.
